Legend:
[1] = refractive index (Na D-line) (dimensionless); wn = mass fraction of the nth substance listed; details: 101.3 kPa, Liquid, Standard Abbe refractometry
[2] = wn = mass fraction of the nth substance listed; details: 295 K, w2 = 0

[I-].[Na+] [sodium iodide] + O
refractive index, [1]
Details | 296 K | 298 K
w1 = 0.332 | 1.3939 | –
w1 = 0.359 | 1.40055 | –
w1 = 0.374 | 1.4045 | –
w1 = 0.39 | 1.40905 | –
w1 = 0.408 | 1.41365 | –
w1 = 0.427 | 1.4193 | –
w1 = 0.449 | 1.426 | –
w1 = 0.46 | 1.4295 | –
w1 = 0.472 | 1.43335 | –
w1 = 0.485 | 1.4376 | –
w1 = 0.498 | 1.4421 | 1.4428
w1 = 0.512 | – | 1.44745
w1 = 0.513 | 1.44705 | –
w1 = 0.518 | – | 1.44985
w1 = 0.524 | – | 1.45195
w1 = 0.528 | 1.4523 | –
w1 = 0.53 | – | 1.45405
w1 = 0.536 | – | 1.45645
w1 = 0.543 | – | 1.45915
w1 = 0.544 | 1.4581 | –
w1 = 0.549 | – | 1.4615
w1 = 0.556 | – | 1.46395
w1 = 0.56 | 1.4648 | –
w1 = 0.563 | – | 1.4666
w1 = 0.57 | – | 1.4694
w1 = 0.577 | – | 1.4721
w1 = 0.579 | 1.472 | –
w1 = 0.585 | – | 1.4744
w1 = 0.598 | 1.4797 | –

O [water] + N#C[S-].[K+]
[1], w2 = 0
Details | refractive index
293 K | 1.3333
298 K | 1.3326
303 K | 1.3321
308 K | 1.33165
313 K | 1.33085

Details | surface tension liquid-gas [mN/m]
[2], Wilhelmi plate | 72.28

[2], 101.3 kPa, Liquid
Details | mass density [kg/m3] | viscosity [mPa·s]
Buoyancy - hydrostatic balance | 999 | –
Concentric cylinders viscometry | – | 0.975
